As usually defined, the IC50 is the point on the concentration scale where inhibition reaches its midpoint. A high value points to lower potency. As a reminder, the half-life is the time in which the quantity being followed falls by half.

The values below come from ChEMBL document CHEMBL5352396, “Synthesis and biological evaluation of novel FiVe1 derivatives as potent and selective agents for the treatment of mesenchymal cancers” (Eur J Med Chem, 2022).

For one data set, the system named is HT-1080. Briefly: cells. Particulars: Homo sapiens, HT-1080, 72 h.
Another data set relates to RD. Briefly: cells. Conditions: Homo sapiens, 72 h.
The next data set concerns MCF7. The data set can be described thus: cells. Particulars: Homo sapiens, MCF7, 72 h.
For the next data set, the system named is GCT. The data set can be described thus: cells. Conditions: Homo sapiens, 72 h.
Data set [1] can be described thus: Metabolic stability in CD-1 mouse liver microsomes assessed as parent compound remaining at 100 uM measured after 60 mins in presence of NADPH by LC-MS/MS analysis. Format: ADME, Microsome. Particulars: read-out: Stability. Background: Liver microsomes are a subcellular fraction often used to study metabolism.
Data set [2] in a line: Metabolic stability in CD-1 mouse liver microsomes assessed as half life at 100 uM measured upto 60 mins in presence of NADPH by LC-MS/MS analysis. Format: ADME, Microsome. Conditions: for t1/2: mouse, microsomes, 1 h, 100 µM.
A short description of data set [3]: Kinetic solubility of the compound in DPBS buffer at pH 7.4 incubated for 16 hrs under shaking condition by HPLC analysis. It counts as physicochemical. Conditions: read-out: Kinetic_solubility.
Data set [4] can be described thus: Metabolic stability in CD-1 mouse liver microsomes assessed as intrinsic clearance at 100 uM measured upto 60 mins in presence of NADPH by LC-MS/MS analysis. Particulars: for microsomal intrinsic clearance: mouse, microsomes, 1 h, 100 µM. It counts as ADME, Microsome.
For data set [5], the target named is Vimentin (Homo sapiens) (UniProt P08670). The data set can be described thus: Induction of Vimentin phosphorylation in human GCT cells at 1 uM incubated for 24 hrs by Western blot analysis. It counts as cell-based. In general terms: Immunoblotting shows a protein as a band on a membrane.
Data set [6] has the same target. Briefly: Induction of Vimentin phosphorylation in human HT-1080 cells at 1 uM incubated for 24 hrs by Western blot analysis. Format: cell-based.
Data set [7] shares this target. Briefly: Induction of Vimentin phosphorylation in human RD cells at 1 uM incubated for 24 hrs by Western blot analysis. It counts as cell-based.

Values after ≈ are worked out from the molar mass of the structure shown. Active and inactive are the calls of the source. The rule behind the calls is not given here.

Vimentin (Homo sapiens), sequence (P08670 whole entry): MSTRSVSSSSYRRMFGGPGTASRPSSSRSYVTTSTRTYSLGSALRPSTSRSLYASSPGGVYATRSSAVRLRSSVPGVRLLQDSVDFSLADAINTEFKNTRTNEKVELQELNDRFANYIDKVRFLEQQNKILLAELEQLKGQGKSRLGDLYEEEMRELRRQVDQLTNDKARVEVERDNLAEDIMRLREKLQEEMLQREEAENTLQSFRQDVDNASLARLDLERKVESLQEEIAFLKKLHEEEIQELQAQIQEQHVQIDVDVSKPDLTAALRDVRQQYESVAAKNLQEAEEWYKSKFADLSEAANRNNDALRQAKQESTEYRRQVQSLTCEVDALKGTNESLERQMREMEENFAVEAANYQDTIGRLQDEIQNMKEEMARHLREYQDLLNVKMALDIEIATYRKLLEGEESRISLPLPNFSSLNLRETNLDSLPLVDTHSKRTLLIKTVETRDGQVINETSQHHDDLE

`Clc1cccc(N2CCN(c3ccnnc3)CC2)c1`: the IC50 in the data set with HT-1080, in the data set on RD, in the data set with MCF7 and with GCT was more than 20 µM in each case.
With `OCCOc1cc(Cl)cc(N2CCN(c3cnnc4c(Cl)cccc34)CC2)c1`, in data set [1], the remaining at 1 h, 100 µM came out at 10.5%. Moreover, in data set [2], the t1/2 is 19.1 min. Moreover, the solubility kinetic at 16 h in data set [3] is 13 µM (≈ 5.45 µg/mL). Further, the IC50 in the data set with HT-1080 is 0.5 µM; in the data set on RD, 0.407 µM; with MCF7, more than 20 µM; in the data set on GCT, 0.667 µM. In data set [4], the microsomal intrinsic clearance worked out at 72.5 µL/min/mg.
On to `Clc1cccc(N2C[C@H]3CC[C@@H](C2)N3c2cnnc3c(Cl)cccc23)c1`, for which the IC50 is 5.57 µM in the data set on HT-1080, 6.15 µM in the data set with RD, more than 20 µM in the data set on MCF7 and 4.03 µM in the data set on GCT.
For `Clc1cccc(N2CCN(c3ccnc4ccccc34)CC2)c1` the same measures were more than 20 µM, more than 20 µM, more than 20 µM and more than 20 µM.
As to `COc1cccc(N2CCN(c3cnnc4c(Cl)cccc34)CC2)c1`, the IC50 in the data set on HT-1080 is 0.598 µM; in the data set with RD, 0.884 µM; in the data set on MCF7, more than 20 µM; in the data set with GCT, 0.402 µM.
For `COc1ccc2c(N3CCN(c4cccc(Cl)c4)CC3)cnnc2c1Cl`, the 50% inhibitory concentration (IC50) with HT-1080, with RD, in the data set on MCF7 and in the data set on GCT was more than 20 µM in each case.
In the case of `C[C@H]1CN(c2cnnc3c(Cl)cccc23)CCN1c1cc(Cl)cc(Cl)c1`, the IC50 in the data set with HT-1080 is 1.15 µM; in the data set on RD, 1.07 µM; in the data set on MCF7, more than 20 µM; in the data set with GCT, 1.27 µM.
In the case of `Clc1cccc(N2CCN(c3ccnc4c(Cl)cccc34)CC2)c1`, the outcome at Vimentin (Homo sapiens) [5], at Vimentin (Homo sapiens) [6] and at Vimentin (Homo sapiens) [7] was inactive. The IC50 in the data set with HT-1080, in the data set with RD, in the data set with MCF7 and in the data set with GCT was more than 20 µM throughout.
For `Clc1cc(OCCOC2CCCCO2)cc(N2CCN(c3cnnc4c(Cl)cccc34)CC2)c1` (centres undefined), the solubility kinetic at 16 h in data set [3] is less than 1 µM. For the same compound, the IC50 in the data set with HT-1080, in the data set on RD, in the data set with MCF7 and in the data set on GCT was more than 20 µM throughout.
As for `NCCOc1cc(Cl)cc(N2CCN(c3cnnc4c(Cl)cccc34)CC2)c1`, the remaining at 1 h, 100 µM in [1] was determined as 78.7%. For the same compound, the t1/2 in [2] was more than 145 min. For the same compound, in data set [3], the solubility kinetic at 16 h turned out to be 38 µM (≈ 15.9 µg/mL). Further, the IC50 in the data set on HT-1080 is 3.89 µM; in the data set on RD it was 4.58 µM; with MCF7 it was more than 20 µM; in the data set on GCT, 3.55 µM. Further, the microsomal intrinsic clearance in data set [4] was less than 9.6 µL/min/mg.
`COC(COc1cc(Cl)cc(N2CCN(c3cnnc4c(Cl)cccc34)CC2)c1)OC`: in [3], the solubility kinetic at 16 h was less than 1 µM. The values for the IC50 with RD, with MCF7 and with GCT were 19.1 µM, more than 20 µM and 2.93 µM, respectively.
On to `Oc1cc(Cl)cc(N2CCN(c3cnnc4c(Cl)cccc34)CC2)c1`, for which the IC50 turned out to be 0.086 µM with HT-1080, 0.083 µM in the data set with RD, 12.1 µM with MCF7 and 0.057 µM in the data set on GCT.
On to `OC(O)COc1cc(Cl)cc(N2CCN(c3cnnc4c(Cl)cccc34)CC2)c1`, for which the remaining at 1 h, 100 µM in [1] came to 35.7%. Further, the half-life at 100 µM in data set [2] (CD-1, mouse, liver microsomes) is 42.7 min. The microsomal CLint at 100 µM in [4] (CD-1, mouse, liver microsomes, read-out: CLH) was 32.5 µL/min/mg.
With `N#Cc1cc(Cl)cc(N2CCN(c3cnnc4c(Cl)cccc34)CC2)c1`, the half-maximal inhibitory concentration (IC50) in the data set on HT-1080 is 0.378 µM; in the data set with RD, 0.402 µM; with MCF7 it was more than 20 µM; with GCT, 0.189 µM.
With `Clc1cccc(N2CC3CC2CN3c2cnnc3c(Cl)cccc23)c1` (centres undefined), the IC50 was 3.23 µM with HT-1080, 5.6 µM in the data set with RD, more than 20 µM in the data set on MCF7 and 8.86 µM with GCT.
With `Fc1c(Cl)cc(N2CCN(c3cnnc4c(Cl)cccc34)CC2)cc1Cl`, the remaining at 1 h, 100 µM in data set [1] turned out to be 29.6%. Further, in [2], the t1/2 is on record as 32.5 min. Moreover, the microsomal intrinsic clearance in data set [4] amounted to 42.6 µL/min/mg.
`Clc1cc(Cl)cc(N2CCN(c3cnnc4c(Cl)cccc34)CC2)c1`: the IC50 is 0.412 µM in the data set on HT-1080, 0.623 µM in the data set on RD, more than 20 µM in the data set with MCF7 and 0.315 µM with GCT.
On to `CN(C)CCOc1cc(Cl)cc(N2CCN(c3cnnc4c(Cl)cccc34)CC2)c1`, for which the solubility kinetic at 16 h in data set [3] came to 131 µM (≈ 58.5 µg/mL). The IC50 with HT-1080 came out at 4.72 µM; in the data set with RD it was 7.02 µM; in the data set on MCF7, 16 µM; in the data set with GCT, 6.49 µM.
On to `Clc1cccc(N2CCN(c3ncnc4ccccc34)CC2)c1`, for which the IC50 in the data set with HT-1080, in the data set on RD, in the data set with MCF7 and in the data set on GCT was more than 20 µM each time.
With `Clc1cccc(N2CCN(c3cc(-c4ccccc4)ncn3)CC2)c1`, the 50% inhibitory concentration (IC50) with HT-1080, in the data set on RD, in the data set with MCF7 and with GCT was more than 20 µM throughout.
On to `COC(=O)CCOc1cc(Cl)cc(N2CCN(c3cnnc4c(Cl)cccc34)CC2)c1`, for which the remaining at 1 h, 100 µM in data set [1] is 28.9%. In addition, the t1/2 in data set [2] amounted to 35.5 min. For the same compound, in [3], the solubility kinetic at 16 h is 82 µM (≈ 37.8 µg/mL). In addition, the IC50 is 0.979 µM in the data set with HT-1080, 1.12 µM in the data set on RD, more than 20 µM in the data set with MCF7 and 1 µM in the data set with GCT. Further, the microsomal intrinsic clearance in data set [4] was determined as 39 µL/min/mg.
Consider `Clc1cccc(N2C[C@@H]3CN(c4cnnc5c(Cl)cccc45)C[C@@H]3C2)c1`, for which the IC50 in the data set with HT-1080, with RD, in the data set on MCF7 and in the data set with GCT was more than 20 µM in each case.
Consider `Clc1cccc(N2CCN(c3cnnc4ccccc34)CC2)c1`, for which the IC50 in the data set with HT-1080, in the data set with RD, with MCF7 and with GCT was more than 20 µM throughout.
Turning to `Clc1cccc(N2CCCN(c3cnnc4c(Cl)cccc34)CC2)c1`, the IC50 with HT-1080, with RD, in the data set with MCF7 and in the data set on GCT was more than 20 µM throughout.
For the compound `Clc1cc(OCCN2CCOCC2)cc(N2CCN(c3cnnc4c(Cl)cccc34)CC2)c1`, the solubility kinetic at 16 h in data set [3] was less than 1 µM. In addition, the IC50 in the data set with HT-1080, in the data set on RD, with MCF7 and in the data set with GCT was more than 20 µM throughout.
Regarding `Clc1cccc(C2CCN(c3cnnc4c(Cl)cccc34)CC2)c1`, the 50% inhibitory concentration (IC50) in the data set with HT-1080, in the data set with RD, in the data set on MCF7 and in the data set with GCT was more than 20 µM in each case.
With `CN(C)CCCOc1cc(Cl)cc(N2CCN(c3cnnc4c(Cl)cccc34)CC2)c1`, the solubility kinetic at 16 h in data set [3] stood at 48 µM (≈ 22.1 µg/mL). For the same compound, the IC50 with HT-1080 is 2.72 µM; in the data set on RD it was 3.69 µM; in the data set with MCF7 it was 4.56 µM.
Regarding `COc1cc(OC)cc(N2CCN(c3cnnc4c(Cl)cccc34)CC2)c1`, the remaining at 1 h, 100 µM in [1] worked out at 0.1%. Further, the t1/2 in data set [2] turned out to be 2.1 min. The IC50 is 0.037 µM with HT-1080, 0.033 µM in the data set with RD, 15.5 µM in the data set with MCF7 and 0.033 µM in the data set on GCT. In addition, the microsomal intrinsic clearance in data set [4] was found to be 657.4 µL/min/mg.
With `Fc1ccc(N2CCN(c3cnnc4c(Cl)cccc34)CC2)cc1Cl`, in data set [1], the remaining at 1 h, 100 µM came to 0.4%. The t1/2 in [2] is on record as 6.7 min. The microsomal intrinsic clearance in data set [4] stood at 205.8 µL/min/mg.
In the case of `Nc1cc(Cl)cc(N2CCN(c3cnnc4c(Cl)cccc34)CC2)c1`, the concentration for half-maximal inhibition (IC50) was 0.647 µM with HT-1080, 1.32 µM in the data set on RD, more than 20 µM with MCF7 and 0.498 µM with GCT.
Consider `Oc1cc(O)cc(N2CCN(c3cnnc4c(Cl)cccc34)CC2)c1`, for which the IC50 was 0.956 µM with HT-1080, 1.28 µM in the data set on RD, more than 20 µM in the data set with MCF7 and 0.656 µM in the data set with GCT.
For `CC(=O)Nc1cc(Cl)cc(N2CCN(c3cnnc4c(Cl)cccc34)CC2)c1` the same measures were 10.8 µM, 7.41 µM, more than 20 µM and 10.8 µM.
For `Clc1cc(N2CCCC2)cc(N2CCN(c3cnnc4c(Cl)cccc34)CC2)c1` the same measures were more than 20 µM, more than 20 µM, more than 20 µM and more than 20 µM.
For `COc1cccc2c(N3CCN(c4cccc(Cl)c4)CC3)cnnc12`, the IC50 with HT-1080, in the data set on RD, in the data set on MCF7 and with GCT was more than 20 µM each time.
`O=C(O)CCOc1cc(Cl)cc(N2CCN(c3cnnc4c(Cl)cccc34)CC2)c1`: in data set [3], the solubility kinetic at 16 h is more than 200 µM. Besides, the IC50 with HT-1080 was 1.53 µM; in the data set on RD it was 1.12 µM; with MCF7 it was more than 20 µM; in the data set with GCT, 0.756 µM.
On to `COCCOc1cc(Cl)cc(N2CCN(c3cnnc4c(Cl)cccc34)CC2)c1`, for which the solubility kinetic at 16 h in [3] is less than 1 µM. For the same compound, the IC50 was 1.7 µM with HT-1080, 1.35 µM with RD, more than 20 µM in the data set on MCF7 and 1.06 µM in the data set with GCT.
